Patent US20110251238A1, “PPAR AGONIST COMPOSITIONS AND METHODS OF USE” (BIOPHARMED, priority 2008, published 2011)
Converted amounts (≈) assume the structure as drawn. Read-outs that look alike come from different tables or passages of the source.

Columns and labels:
[1] = tested on: KB3 (epitheloid lung cancer) cell lines; test: Cell growth inhibition (cytotoxicity), MTS assay, KB3 cell line; assay type: cell-based; conditions: Table 3A, MTS assay, triplicate, read-out: KB3 IC50
Method: Cell growth inhibition was determined by the MTS assay; the number of viable cells were proportional to the extent of formazan production in the presence or absence of drugs. […]

[2] = tested on: A549 (human lung adenocarcinoma epithelial); test: Growth inhibition, MTT colorimetric assay, A549; assay type: cell-based; conditions: carcinoma, 3 days with drug, means of six values, unit inferred, read-out: IC50 A549
Method: (§1) A549 (human lung adenocarcinoma epithelial), BxPC3 (pancreatic cancer), LoVo (colon cancer), MCF-7 (epithelial breast cancer), PC3 (human prostate cancer), Hs683 (human glioma), T98G (glioblastoma), U373 (human glioblastoma-astrocytoma), U138 MG (human glioma), epithelial-like), SKMEL28 (human melanoma), B16-F10 (mouse melanoma) and RhTP (rhabdomyosarcoma) cell lines were cultured in presence of the drugs for 3 days. The cytotoxic activity is expressed as (IC50). Inhibition of cell proliferation measured by the MTT colorimetric assay. The values reported in Table 4 are means of six distinct values.

[3] = tested on: BxPC3 (pancreatic cancer); test: Growth inhibition, MTT colorimetric assay, BxPC3; assay type: cell-based, human; conditions: carcinoma, 3 days with drug, means of six values, unit inferred, read-out: IC50 BxPC3
Method: Cells are cultured at 37° C. in Falcon culture dishes, incubated at 5% CO2 in a suitable culture medium available from Invitrogen Corp. Anti-proliferative activity is determined by an MTT assay (bromide of (3-[4,5-dimethylthiazolium-yl]diphenyltetrazolium)). According to one standard protocol, absorbance is measured at 570 nm (see Dumont et al. (2007) Neoplasia 9: 766-776.
as §1

LoVo (colon cancer) = test: Growth inhibition, MTT colorimetric assay, LoVo; assay type: cell-based; conditions: carcinoma, 3 days with drug, means of six values, unit inferred, read-out: IC50 LoVo
Method: as §1

[4] = tested on: MCF-7 (epithelial breast cancer); test: Growth inhibition, MTT colorimetric assay, MCF7; assay type: cell-based; conditions: carcinoma, 3 days with drug, means of six values, unit inferred, read-out: IC50 MCF7
Method: as §1

[5] = tested on: PC3 (human prostate cancer); test: Growth inhibition, MTT colorimetric assay, PC3; assay type: cell-based; conditions: carcinoma, 3 days with drug, means of six values, unit inferred, read-out: IC50 PC3
Method: as §1, with “Compounds that met the criteria for activity on KB3 cells were further tested for drug growth inhibitory activity in 5 carcinoma, 6 glioma and 3 melanoma cell lines, shown in Table 4. A549” for “A549”, “values. The standard errors are <5% as compared to the mean values.” for “values.”

Hs683 (human glioma) = test: Growth inhibition, MTT colorimetric assay, HS683; assay type: cell-based; conditions: glioma, 3 days with drug, means of six values, unit inferred, read-out: IC50 HS683
Method: as §1

T98G (glioblastoma) = test: cells; assay type: cell-based; conditions: glioma, 3 days with drug, means of six values, unit inferred, read-out: IC50 T98G
Method: as §1

[6] = tested on: U373 (human glioblastoma-astrocytoma); test: Growth inhibition, MTT colorimetric assay, U373; assay type: cell-based; conditions: glioma, 3 days with drug, means of six values, unit inferred, read-out: IC50 U373
Method: as §1, with “Compounds that met the criteria for activity on KB3 cells were further tested for drug growth inhibitory activity in 5 carcinoma, 6 glioma and 3 melanoma cell lines, shown in Table 4. A549” for “A549”, “values. The standard errors are <5% as compared to the mean values.” for “values.”

U138 MG (human glioma) = test: Growth inhibition, MTT colorimetric assay, U138; assay type: cell-based; conditions: glioma, 3 days with drug, means of six values, unit inferred, read-out: IC50 U138
Method: as §1, with “Compounds that met the criteria for activity on KB3 cells were further tested for drug growth inhibitory activity in 5 carcinoma, 6 glioma and 3 melanoma cell lines, shown in Table 4. A549” for “A549”, “values. The standard errors are <5% as compared to the mean values.” for “values.”

GL19 = test: Growth inhibition, MTT colorimetric assay, GL19; assay type: cell-based; conditions: 3 days with drug, means of six values, unit inferred, read-out: IC50 GL19
Method: as §1, with “Compounds that met the criteria for activity on KB3 cells were further tested for drug growth inhibitory activity in 5 carcinoma, 6 glioma and 3 melanoma cell lines, shown in Table 4. A549” for “A549”, “values. The standard errors are <5% as compared to the mean values.” for “values.”

RhTP (rhabdomyosarcoma) = test: Growth inhibition, MTT colorimetric assay, RhTp; assay type: cell-based; conditions: 3 days with drug, means of six values, unit inferred, read-out: IC50 RhTp
Method: as §1, with “Compounds that met the criteria for activity on KB3 cells were further tested for drug growth inhibitory activity in 5 carcinoma, 6 glioma and 3 melanoma cell lines, shown in Table 4. A549” for “A549”, “values. The standard errors are <5% as compared to the mean values.” for “values.”

KaKa = test: Growth inhibition, MTT colorimetric assay, KaKa; assay type: cell-based; conditions: 3 days with drug, means of six values, unit inferred, read-out: IC50 KaKa
Method: as §1, with “Compounds that met the criteria for activity on KB3 cells were further tested for drug growth inhibitory activity in 5 carcinoma, 6 glioma and 3 melanoma cell lines, shown in Table 4. A549” for “A549”, “values. The standard errors are <5% as compared to the mean values.” for “values.”

Host = test: Growth inhibition, MTT colorimetric assay, Host; assay type: cell-based; conditions: 3 days with drug, means of six values, unit inferred, read-out: IC50 Host
Method: as §1, with “Compounds that met the criteria for activity on KB3 cells were further tested for drug growth inhibitory activity in 5 carcinoma, 6 glioma and 3 melanoma cell lines, shown in Table 4. A549” for “A549”, “values. The standard errors are <5% as compared to the mean values.” for “values.”

SKMEL28 (human melanoma) = test: Growth inhibition, MTT colorimetric assay, SKMEL-28; assay type: cell-based; conditions: melanoma, 3 days with drug, means of six values, unit inferred, read-out: IC50 SKMEL-28
Method: as §1, with “Compounds that met the criteria for activity on KB3 cells were further tested for drug growth inhibitory activity in 5 carcinoma, 6 glioma and 3 melanoma cell lines, shown in Table 4. A549” for “A549”, “values. The standard errors are <5% as compared to the mean values.” for “values.”

B16-F10 (mouse melanoma) = test: Growth inhibition, MTT colorimetric assay, B16F10; assay type: cell-based; conditions: melanoma, 3 days with drug, means of six values, unit inferred, read-out: IC50 B16F10
Method: as §1, with “Compounds that met the criteria for activity on KB3 cells were further tested for drug growth inhibitory activity in 5 carcinoma, 6 glioma and 3 melanoma cell lines, shown in Table 4. A549” for “A549”, “values. The standard errors are <5% as compared to the mean values.” for “values.”

[7] = tested on: bloodstream forms of T. brucei and T. congolense; test: Trypanocidal activity in vitro, Alamar Blue assay; assay type: cell-based, Trypanosoma brucei and T. congolense; conditions: 48 h total incubation; for GI50: 50% growth inhibition, read-out: GI50; for MIC: lowest concentration at which all cells were killed, read-out: MIC
Excerpt: Trypanosoma brucei and T. congolense are the causative agents of sleeping sickness in humans and nagana in cattle, respectively. The protozoan parasites live extracellularlyin blood and tissue fluids of mammals and are transmitted by the bite of infected tsetse flies (Glossina spp.). Here the trypanocidal activity against bloodstream forms of T. brucei and T. congolense of bis-8-hydroxy quinoline N-substituted benzylamines derivatives was investigated in vitro, according to methods described in. Steverding et al. (2006) Kinetoplastid Biology and Disease, 5(3): 1-5; Hongmance et al., (2007) Antimicrob. Agents Chemother. 51:1105-1106; and Zhao et al., (2005) Bio-org. Med. Chem.; 13: 3921-3926. Cells were seeded into 96-well tissue culture plates in 200 μl medium containing various concentrations of analogues dissolved in H2O. The controls contained the respective solvent alone. […] After 24 h (trypanosomes) or 43 h (HL-60) incubation, 20 μl of the colorimetric viability indicator Alamar Blue® was added to each well. The cells were incubated for a further 24 h (trypanosomes) or 5 h (HL-60) so that the total incubation time was 48 h. Then, the plates were read on a Dynatech MR5000ELISA reader (Denkendorf, Germany),using a test wavelength of 550 nm and a reference wave length of 630 nm. Each test was set up in duplicate and repeated three times. For comparison, the general cytotoxicity of the compounds was assayed with human myeloid leukaemia HL-60 cells. The anti-trypanosomal activities and the general cytotoxicities of the new analogues were evaluated using the Alamar Blue® assay.

5,5′-(3,5-bis(trifluorométhyl)benzylazanediyl)bis(méthylène)diquinoléin-8-ol [BPM18,201]
IC50 [1]: 1000 nM
IC50 [2]: 9 nM
IC50 [3]: 0.079 µM
IC50 (LoVo (colon cancer)): 10 nM
IC50 [4]: 38 nM
IC50 [5]: 71 nM
IC50 (Hs683 (human glioma)): 181 nM
IC50 (T98G (glioblastoma)): 72 nM
IC50 [6]: 96 nM
IC50 (U138 MG (human glioma)): 46 nM
IC50 (GL19): 2.14 µM
IC50 (RhTP (rhabdomyosarcoma)): 47 nM
IC50 (KaKa): 98 nM
IC50 (Host): 146 nM
IC50 (SKMEL28 (human melanoma)): > 10 µM
IC50 (B16-F10 (mouse melanoma)): 76 nM
GI50 [7]: 320 ± 10 nM
MIC [7]: 1 µM

Oc1ccc(CN(Cc2ccccc2C(F)(F)F)Cc2ccc(O)c3ncccc23)c2cccnc12 [BPM19,178, 5,5-(2-(Trifluoromethyl)benzylazanediyl)bis(methylene)diquinolin-8-ol]
IC50 [1]: 100 nM
IC50 [2]: 46 nM
IC50 [3]: 0.274 µM
IC50 (LoVo (colon cancer)): 93 nM
IC50 [4]: 88 nM
IC50 [5]: 179 nM
IC50 (Hs683 (human glioma)): 64 nM
IC50 (T98G (glioblastoma)): 210 nM
IC50 [6]: 78 nM
IC50 (U138 MG (human glioma)): 80 nM
IC50 (GL19): 0.472 µM
IC50 (RhTP (rhabdomyosarcoma)): 87 nM
IC50 (KaKa): 887 nM
IC50 (Host): 912 nM
IC50 (SKMEL28 (human melanoma)): 6.38 µM
IC50 (B16-F10 (mouse melanoma)): 98 nM
GI50 [7]: 330 ± 10 nM
MIC [7]: 1 µM (≈ 0.489 µg/mL)

Oc1ccc(CN(Cc2ccc(O)c3ncccc23)CC2CCCCC2)c2cccnc12 [BPM19,219, 5,5′-cyclohexylmethylazanediyl-bis-[(methylene)di(quinolin-8-ol)]]
IC50 [2]: 369 nM
IC50 [3]: 3.81 µM
IC50 (LoVo (colon cancer)): 357 nM
IC50 [4]: 365 nM
IC50 [5]: 421 nM
IC50 (Hs683 (human glioma)): 584 nM
IC50 (T98G (glioblastoma)): 486 nM
IC50 [6]: 2570 nM
IC50 (U138 MG (human glioma)): 446 nM
IC50 (GL19): 8.97 µM
IC50 (RhTP (rhabdomyosarcoma)): 865 nM
IC50 (KaKa): 5940 nM
IC50 (Host): 1540 nM
IC50 (SKMEL28 (human melanoma)): > 10 µM
IC50 (B16-F10 (mouse melanoma)): 873 nM
GI50 [7]: 2950 ± 180 nM
MIC [7]: 10 µM (≈ 4.28 µg/mL)

Oc1ccc(CN(Cc2ccccc2)Cc2ccc(O)c3ncccc23)c2cccnc12 [BPM18,725, 5,5′-(benzylazanediyl)bis(methylene)diquinolin-8-ol]
IC50 ([1]; KB3): 20 nM
IC50 ([2]; Homo sapiens, A549, 72 h): 54 nM
IC50 ([3]; Homo sapiens, BXPC-3, 72 h): 7.44 µM
IC50 (LoVo (colon cancer); Homo sapiens, LoVo, 72 h): 91 nM
IC50 ([4]; Homo sapiens, MCF7, 72 h): 97 nM
IC50 ([5]; Homo sapiens, 72 h): 258 nM
IC50 (Hs683 (human glioma); Homo sapiens, Hs 683, 72 h): 76 nM
IC50 (T98G (glioblastoma); Homo sapiens, T98G, 72 h): 249 nM
IC50 ([6]; Homo sapiens, U373 MG, 72 h): 357 nM
IC50 (U138 MG (human glioma); Homo sapiens, U138-MG, 72 h): 95 nM
IC50 (GL19; GL19, 72 h): 3.45 µM
IC50 (RhTP (rhabdomyosarcoma); 72 h): 97 nM
IC50 (KaKa; 72 h): 2430 nM
IC50 (Host; 72 h): 2160 nM
IC50 (SKMEL28 (human melanoma); Homo sapiens, SK-MEL-28, 72 h): > 10 µM
IC50 (B16-F10 (mouse melanoma); Mus musculus, B16-F10, 72 h): 765 nM
GI50 [7]: 300 ± 10 nM
MIC [7]: 1 µM (≈ 0.422 µg/mL)

Oc1ccc(CN(Cc2cccc(I)c2)Cc2ccc(O)c3ncccc23)c2cccnc12 [BPM19,200, 5,5′-(3-iodobenzylazanediyl)bis(methylene)diquinolin-8-ol]
IC50 ([1]; KB3): 1000 nM
IC50 ([2]; Homo sapiens, A549, 72 h): 350 nM
IC50 ([3]; Homo sapiens, BXPC-3, 72 h): 3.81 µM
IC50 (LoVo (colon cancer); Homo sapiens, LoVo, 72 h): 393 nM
IC50 ([4]; Homo sapiens, MCF7, 72 h): 374 nM
IC50 ([5]; Homo sapiens, 72 h): 394 nM
IC50 (Hs683 (human glioma); Homo sapiens, Hs 683, 72 h): 479 nM
IC50 (T98G (glioblastoma); Homo sapiens, T98G, 72 h): 446 nM
IC50 ([6]; Homo sapiens, U373 MG, 72 h): 5600 nM
IC50 (U138 MG (human glioma); Homo sapiens, U138-MG, 72 h): 430 nM
IC50 (GL19; GL19, 72 h): > 10 µM
IC50 (RhTP (rhabdomyosarcoma); 72 h): 788 nM
IC50 (KaKa; 72 h): 7680 nM
IC50 (Host; 72 h): 2980 nM
IC50 (SKMEL28 (human melanoma); Homo sapiens, SK-MEL-28, 72 h): 9.85 µM
IC50 (B16-F10 (mouse melanoma); Mus musculus, B16-F10, 72 h): 888 nM
